Measured values reported in US20230293599A1, “BACTERIAL COMPOSITIONS WITH ANTI-INFLAMMATORY ACTIVITY” (Universiteit Gent, priority 2020, published 2023).
Like-named read-outs stand apart in the source and are kept apart here. Residues, ends and D or L forms follow the SMILES beside them.

Tests used:
S. aureus = assay type: cell-based, Staphylococcus aureus
Procedure: (§1) Using Phenotype Microarray (PM) panels (Biolog), the influence of 190 carbon sources on the growth of the potential probiotic species R. mucilaginosa, R. dentocariosa, R. gilardii, G. haemolysans, and common respiratory pathogens P. aeruginosa, and S. aureus was determined. PM1 and PM2 panels (Biolog) were inoculated according to the manufacturer's instructions. Growth curves were generated for 35 hours by measuring the absorbance at 590 nm using an EnVision (Perkin Elmer) plate reader.

G. haemolysans = experiment: Biolog Phenotype Microarray PM1-2 growth on carbon sources; assay type: cell-based, Gemella haemolysans
Procedure: as §1

R. gilardii = experiment: as above; assay type: cell-based, Roseomonas gilardii
Procedure: as §1

R. dentocariosa = experiment: as above; assay type: cell-based, Rothia dentocariosa
Procedure: as §1

P. aeruginosa = experiment: as above; assay type: cell-based, Pseudomonas aeruginosa
Procedure: as §1

R. mucilaginosa = experiment: as above; assay type: cell-based, Rothia mucilaginosa
Procedure: as §1

[1] = 35 hours, absorbance 590 nm, n = 1, cells without values AUC < 50
[2] = AUC lower than 50 = not supporting growth

## CC(O)C(C)O (centres unmarked) [2,3-Butanediol]
S. aureus
  AUC of growth curve, S. aureus: 147.2
G. haemolysans; [1]
  AUC of growth curve, G. haemolysans: 145.4

## O=CC[C@H](O)[C@H](O)CO [2-Deoxy-D-Ribose]
S. aureus
  AUC of growth curve, S. aureus: 580.2
R. gilardii; [1]
  AUC of growth curve, R. gilardii: 366.7
R. dentocariosa; [1]
  AUC of growth curve, R. dentocariosa: 376.6
P. aeruginosa; [1]
  AUC of growth curve, P. aeruginosa: 529.9
G. haemolysans; [1]
  AUC of growth curve, G. haemolysans: 180.3

## O=C(CO)[C@@H](O)[C@H](O)[C@@H](O)C(=O)O [5-Keto-D-Gluconic Acid]
S. aureus
  AUC of growth curve, S. aureus: 432.1
R. gilardii
  AUC of growth curve, R. gilardii: 423.9
R. dentocariosa
  AUC of growth curve, R. dentocariosa: 277.0
P. aeruginosa
  AUC of growth curve, P. aeruginosa: 1312.5
G. haemolysans
  AUC of growth curve, G. haemolysans: 122.8

## CC(=O)CC(=O)O [Acetoacetic Acid]
S. aureus
  AUC of growth curve, S. aureus: 928.3
R. gilardii; [1]
  AUC of growth curve, R. gilardii: 172.4
R. dentocariosa; [1]
  AUC of growth curve, R. dentocariosa: 229.8
P. aeruginosa; [1]
  AUC of growth curve, P. aeruginosa: 301.3
R. mucilaginosa; [1]
  AUC of growth curve, R. mucilaginosa: 301.4

## Nc1ncnc2c1ncn2[C@@H]1O[C@H](CO)[C@@H](O)[C@H]1O [Adenosine]
S. aureus
  AUC of growth curve, S. aureus: 472.6
P. aeruginosa; [1]
  AUC of growth curve, P. aeruginosa: 398.1
G. haemolysans; [1]
  AUC of growth curve, G. haemolysans: 65.6

## O=C[C@@H](O)[C@H](O)[C@H](O)CO [D-Arabinose]
S. aureus
  AUC of growth curve, S. aureus: 705.0
R. gilardii; [1]
  AUC of growth curve, R. gilardii: 356.3
R. dentocariosa; [1]
  AUC of growth curve, R. dentocariosa: 305.6
P. aeruginosa; [1]
  AUC of growth curve, P. aeruginosa: 763.4
G. haemolysans; [1]
  AUC of growth curve, G. haemolysans: 88.1

## O=C(CO)[C@@H](O)[C@H](O)[C@H](O)COP(=O)(O)O [D-Fructose-6-Phosphate]
S. aureus
  AUC of growth curve, S. aureus: 437.8
R. dentocariosa; [1]
  AUC of growth curve, R. dentocariosa: 87.1
P. aeruginosa; [1]
  AUC of growth curve, P. aeruginosa: 783.8
R. mucilaginosa; [1]
  AUC of growth curve, R. mucilaginosa: 127.5
G. haemolysans; [1]
  AUC of growth curve, G. haemolysans: 134.2

## O=C(CO)[C@@H](O)[C@H](O)[C@H](O)CO [D-Fructose]
S. aureus
  AUC of growth curve, S. aureus: 992.9
R. gilardii
  AUC of growth curve, R. gilardii: 315.8
R. dentocariosa
  AUC of growth curve, R. dentocariosa: 109.5
P. aeruginosa
  AUC of growth curve, P. aeruginosa: 413.3
R. mucilaginosa
  AUC of growth curve, R. mucilaginosa: 1111.2
G. haemolysans
  AUC of growth curve, G. haemolysans: 88.8

## O=C[C@H](O)[C@@H](O)[C@@H](O)[C@H](O)CO [D-Galactose]
S. aureus
  AUC of growth curve, S. aureus: 834.0
R. gilardii; [1]
  AUC of growth curve, R. gilardii: 186.6
R. dentocariosa; [1]
  AUC of growth curve, R. dentocariosa: 533.6
P. aeruginosa; [1]
  AUC of growth curve, P. aeruginosa: 720.0
R. mucilaginosa; [1]
  AUC of growth curve, R. mucilaginosa: 101.1

## N[C@H]1C(O)O[C@H](CO)[C@@H](O)[C@@H]1O (stereo partly drawn) [D-Glucosamine]
S. aureus
  AUC of growth curve, S. aureus: 884.6
R. gilardii; [1]
  AUC of growth curve, R. gilardii: 196.5
R. dentocariosa; [1]
  AUC of growth curve, R. dentocariosa: 200.6
P. aeruginosa; [1]
  AUC of growth curve, P. aeruginosa: 840.0
G. haemolysans; [1]
  AUC of growth curve, G. haemolysans: 618.4

## O=C[C@@H](O)[C@@H](O)[C@H](O)[C@H](O)CO [D-Mannose]
S. aureus
  AUC of growth curve, S. aureus: 729.5
R. dentocariosa; [1]
  AUC of growth curve, R. dentocariosa: 106.1
P. aeruginosa; [1]
  AUC of growth curve, P. aeruginosa: 495.0
R. mucilaginosa; [1]
  AUC of growth curve, R. mucilaginosa: 1017.6
G. haemolysans; [1]
  AUC of growth curve, G. haemolysans: 218.6

## O=C(CO)[C@H](O)[C@H](O)[C@H](O)CO [D-Psicose]
S. aureus
  AUC of growth curve, S. aureus: 698.5
R. gilardii
  AUC of growth curve, R. gilardii: 86.7
R. dentocariosa
  AUC of growth curve, R. dentocariosa: 428.2
P. aeruginosa
  AUC of growth curve, P. aeruginosa: 771.3
R. mucilaginosa
  AUC of growth curve, R. mucilaginosa: 436.4

## O=C[C@H](O)[C@H](O)[C@H](O)CO [D-Ribose]
S. aureus
  AUC of growth curve, S. aureus: 769.0
R. gilardii; [1]
  AUC of growth curve, R. gilardii: 718.5
R. dentocariosa; [1]
  AUC of growth curve, R. dentocariosa: 431.1
P. aeruginosa; [1]
  AUC of growth curve, P. aeruginosa: 1450.3
R. mucilaginosa; [1]
  AUC of growth curve, R. mucilaginosa: 371.4
G. haemolysans; [1]
  AUC of growth curve, G. haemolysans: 627.5

## O=C[C@H](O)[C@@H](O)[C@H](O)CO [D-Xylose]
S. aureus
  AUC of growth curve, S. aureus: 92.4
R. gilardii; [1]
  AUC of growth curve, R. gilardii: 310.4
R. dentocariosa; [1]
  AUC of growth curve, R. dentocariosa: 257.9
P. aeruginosa; [1]
  AUC of growth curve, P. aeruginosa: 1218.3
R. mucilaginosa; [1]
  AUC of growth curve, R. mucilaginosa: 157.4
G. haemolysans; [1]
  AUC of growth curve, G. haemolysans: 581.3

## NC(=O)[C@@H](O)[C@@H](O)[C@H](O)[C@@H](O)C=O [Glucuronamide]
S. aureus
  AUC of growth curve, S. aureus: 62.8
R. gilardii; [1]
  AUC of growth curve, R. gilardii: 53.3
R. dentocariosa; [1]
  AUC of growth curve, R. dentocariosa: 124.2
P. aeruginosa; [1]
  AUC of growth curve, P. aeruginosa: 820.8
R. mucilaginosa; [1]
  AUC of growth curve, R. mucilaginosa: 84.9
G. haemolysans; [1]
  AUC of growth curve, G. haemolysans: 97.6

## OCC(O)CO [Glycerol]
S. aureus
  AUC of growth curve, S. aureus: 802.4
R. gilardii; [1]
  AUC of growth curve, R. gilardii: 59.0
R. dentocariosa; [1]
  AUC of growth curve, R. dentocariosa: 998.9
R. dentocariosa; [2]
  growth of R. dentocariosa on the carbon source (in words): allowed growth
P. aeruginosa; [1]
  AUC of growth curve, P. aeruginosa: 78.3
P. aeruginosa; [2]
  growth of P. aeruginosa on the carbon source (in words): did not support growth
R. mucilaginosa; [1]
  AUC of growth curve, R. mucilaginosa: 786.8
R. mucilaginosa; [2]
  growth of R. mucilaginosa on the carbon source (in words): allowed growth

## NCC(=O)N[C@@H](CCC(=O)O)C(=O)O [Glycyl-L-Glutamic Acid] (H-Gly-Glu-OH)
S. aureus
  AUC of growth curve, S. aureus: 871.5
R. gilardii
  AUC of growth curve, R. gilardii: 61.5
P. aeruginosa
  AUC of growth curve, P. aeruginosa: 285.6
R. mucilaginosa
  AUC of growth curve, R. mucilaginosa: 140.3
